# Tests used:
# [1] = Curcumin dissolution in water (saturated), centrifuged supernatant read by UV-Vis at 405 nm; format: physicochemical
# Procedure: (§1) The autoclave cycle was 70 minutes, of which ˜40 minutes represent actual time under pressure.
# That mixture was then combined with 47.5 mL of deionized water to make up a 50 mL solution.
# [2] = Stability of dissolved curcumin: hydrolysis at alkaline pH and precipitation over time; format: physicochemical; settings: pressure-dissolved (15 psi, 121° C.) solution
# Procedure: For solutions made at room temperature it is difficult to obtain a clear (i.e., solid-free) supernatant even from careful centrifuging. The samples are far more soluble in alkaline water (e.g., pH 7.6), but when placed in phosphate buffered saline (PBS) and serum-free media at modest alkaline pH (pH 7.2, at 37° C.) the curcuminoids are hydrolyzed substantially completely within 30 minutes.
# Even so, UV-Visible spectra and mass specta (from matrix assisted laser desorption […] time of flight mass spectrometry, MALDI-TOF-MS) confirmed that the dissolved curcumin was substantially unchanged by the heat treatment. Heat treatment also appears to increase the solubilization of BDMC but (curiously) not DMC.
# as §1
# [3] = test system: 4-hydroxy-2-nonenal-mediated oxidative modification of a protein substrate; experiment: Inhibition of 4-hydroxy-2-nonenal-mediated oxidative modification of a protein substrate; format: biochemical; settings: heat-solubilized
# [4] = test system: anti-Ro60 autoantibodies / Ro60 autoantigen; experiment: Inhibition of binding of anti-Ro60 autoantibodies to Ro60 autoantigen; parameters: species or system human; settings: heat-solubilized
# anti-spectrin / spectrin = experiment: Inhibition of binding of commercial polyclonal anti-spectrin to spectrin; settings: heat-solubilized
# DNA = experiment: Binding or intercalation to DNA; settings: heat solubilized
# [5] = Ingestion of aqueous solubilized curcumin by four adult males, reported effects; format: in vivo, human
# Procedure: The study conditions were as follows.
# This subject's study was conducted in a completely blind manner: the subject was told nothing about the known or suspected properties but was merely asked to report their observations.
# [6] = cited from earlier work
# [7] = Curcumin dissolution in water (saturated), centrifuged supernatant read by UV-Vis at 405 nm; format: physicochemical; remark: listed apart in the source
# [8] = 0.1% Tween-20, 15 psi, 121° C., deionized water
# [9] = 0.5% Tween-20, 15 psi, 121° C., deionized water
# [10] = 2% Tween-20, 15 psi, 121° C., deionized water
# [11] = 15 psi, 121° C., deionized water, 5 mg/mL present
# [12] = 0.1% Tween-20, room pressure, 100° C. deionized water
# [13] = 2% Tween-20, room pressure, 100° C. deionized water
smiles,measurement,setting,value
"COc1cc(/C=C/C(=O)CC(=O)/C=C/c2ccc(O)c(OC)c2)ccc1O [curcumin, 1,7-bis[4-hydroxy-3-methoxyphenyl]-1,6-heptadiene-3,5-dione]",Dissolution (Approximate) Mass/mL,[1]; [8],44.84 µg/mL
same,Dissolution (Approximate) Molarity,[1]; [8],0.12 mM
same,Dissolution (Approximate) Molarity,[1]; [9],0.75 mM
same,Dissolution (Approximate) Mass/mL,[1]; [10],1556 µg/mL
same,Dissolution (Approximate) Molarity,[1]; [10],4.2 mM
same,Increase over curcumin dissolved at ambient temperature,"[1]; 15 psi, 121° C., 5% ethanol in deionized water",~100 fold
same,Dissolved share of the original amount,"[1]; 15 psi, 121° C., 5% ethanol in deionized water, made up to 50 mL",about 12.9%
same,Dissolved share of the curcumin initially present,[1]; [11],5%
same,Solubilized share of starting curcumin,"[1]; autoclaved in water with 2% of a poly(alkyl ether), 50 mL starting solution",31%
same,Precipitation or turbidity of the solution over time,[2],did not precipitate out or cause the solution to become cloudy or turbid
same,Reduction in pristine curcumin,[2]; alkaline pH for 72 hours,32%
same,Inhibition of 4-hydroxy-2-nonenal-mediated oxidative modification of a protein substrate,[3],80%
same,Inhibition of binding of anti-Ro60 autoantibodies to Ro60 autoantigen,[4]; Sjögren's syndrome sera,up to 43%
same,Inhibition of binding of anti-Ro60 autoantibodies to Ro60 autoantigen,[4]; systemic lupus erythematosus (SLE) sera,up to 52%
same,Inhibition of binding of commercial polyclonal anti-spectrin to spectrin,anti-spectrin / spectrin,50%
same,Intercalation into or binding to DNA,DNA,does not intercalate into or otherwise bind to DNA
same,Duration of relief from metatarsal arthritic inflammation,"[5]; Subject #3, about 100 kg, 20 mL of 350 micromolar sample (autoclave, 5% ethanol), ingested",about 48 hours
same,Effect on mood,"[5]; four adult males, 5-20 mL of 150-350 micromolar autoclaved aqueous curcumin, ingested",mood elevating effects
same,Onset of mood elevating effects,"[5]; four adult males, ingested autoclaved aqueous curcumin",almost instantaneously
same,Increase in solubility by heat treatment over unheated,[6]; Kurien et al. (2007): boiling deionized water,12 fold
same,Solubility of curcumin itself,"[6]; deionized water at room temperature, dissolved material is DMC and BDMC",insoluble
same,Dissolution (Approximate) Mass/mL,[7]; [12],22.5 µg/mL
same,Dissolution (Approximate) Molarity,[7]; [12],0.061 mM
same,Dissolution (Approximate) Mass/mL,[7]; [9],278.1 µg/mL
same,Dissolution (Approximate) Mass/mL,"[7]; 0.5% Tween-20, room pressure, 100° C. deionized water",77.44 µg/mL
same,Dissolution (Approximate) Mass/mL,[7]; [13],443.52 µg/mL
same,Dissolution (Approximate) Molarity,[7]; [13],1.2 mM
same,Dissolution (Approximate) Molarity,[7]; [11],0.68 mM

# Source: patent US20140161915A1, “Solubilization of cucurminoid compounds and products thereof” (priority 2011, published 2014)
